Test results as given in PubChem BioAssay (NCI).
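Abbreviation: GI50, concentration required for 50% inhibition of growth. TGI: total growth inhibition.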

Tests used:
Test in all cases: DTP human tumour cell line panel, 384-well format
SR leukemia = system: SR leukemia
LOX IMVI melanoma = system: LOX IMVI melanoma
K-562 leukemia = system: K-562 leukemia
OVCAR-8 ovarian = system: OVCAR-8 ovarian
MDA-MB-231 breast = system: MDA-MB-231 breast
RXF 393 renal = system: RXF 393 renal
SN12C renal = system: SN12C renal
KM12 colon = system: KM12 colon
CAKI-1 renal = system: CAKI-1 renal
SK-OV-3 ovarian = system: SK-OV-3 ovarian
SNB-19 CNS = system: SNB-19 CNS
MOLT-4 leukemia = system: MOLT-4 leukemia
COLO 205 colon = system: COLO 205 colon
MCF7 breast = system: MCF7 breast
DU-145 prostate = system: DU-145 prostate
A549 NSCLC = system: A549 NSCLC
OVCAR-3 ovarian = system: OVCAR-3 ovarian
T-47D breast = system: T-47D breast
HCT-15 colon = system: HCT-15 colon
MDA-MB-435 melanoma = system: MDA-MB-435 melanoma
SNB-75 CNS = system: SNB-75 CNS
UACC-62 melanoma = system: UACC-62 melanoma
NCI-H23 lung = system: NCI-H23 lung
TK-10 renal = system: TK-10 renal
SF-295 CNS = system: SF-295 CNS
SK-MEL-28 melanoma = system: SK-MEL-28 melanoma
BT-549 breast = system: BT-549 breast
HOP-92 NSCLC = system: HOP-92 NSCLC
M14 melanoma = system: M14 melanoma
OVCAR-4 ovarian = system: OVCAR-4 ovarian
CCRF-CEM leukemia = system: CCRF-CEM leukemia
IGROV1 ovarian = system: IGROV1 ovarian
HT29 colon = system: HT29 colon
UACC-257 melanoma = system: UACC-257 melanoma
A498 renal = system: A498 renal
U251 glioblastoma = system: U251 glioblastoma
NCI-H522 lung = system: NCI-H522 lung
HCT-116 colon = system: HCT-116 colon
NCI-H322M lung = system: NCI-H322M lung
ACHN renal = system: ACHN renal
SF-539 CNS = system: SF-539 CNS
MALME-3M melanoma = system: MALME-3M melanoma
OVCAR-5 ovarian = system: OVCAR-5 ovarian
HCC-2998 colon = system: HCC-2998 colon
HS 578T breast = system: HS 578T breast
HOP-62 NSCLC = system: HOP-62 NSCLC
PC-3 prostate = system: PC-3 prostate
786-0 renal = system: 786-0 renal
SW-620 colon = system: SW-620 colon
NCI-H226 lung = system: NCI-H226 lung
EKVX NSCLC = system: EKVX NSCLC
MDA-MB-468 breast = system: MDA-MB-468 breast
RPMI-8226 leukemia = system: RPMI-8226 leukemia
SK-MEL-5 melanoma = system: SK-MEL-5 melanoma
SF-268 CNS = system: SF-268 CNS
HL-60(TB) leukemia = system: HL-60(TB) leukemia
SK-MEL-2 melanoma = system: SK-MEL-2 melanoma
NCI/ADR-RES ovarian = system: NCI/ADR-RES ovarian
UO-31 renal = system: UO-31 renal
NCI-H460 NSCLC = system: NCI-H460 NSCLC

Cn1cc(-c2ccc(-c3ccc(C4=NC5(CC5)C(=O)N4C[C@@H]4CCN(C(=O)C5CC5)C4)cc3)cc2)cn1
GI50 (SR leukemia): 0.0145 µM | TGI (SR leukemia): 0.0828 µM | GI50 (LOX IMVI melanoma): 2.48 µM | TGI (LOX IMVI melanoma): 14 µM | GI50 (K-562 leukemia): 6.43 µM | TGI (K-562 leukemia): > 95.4 µM | GI50 (OVCAR-8 ovarian): 13.4 µM | TGI (OVCAR-8 ovarian): 41.6 µM | GI50 (MDA-MB-231 breast): 12.3 µM | TGI (MDA-MB-231 breast): 56.1 µM | GI50 (RXF 393 renal): 14.4 µM | TGI (RXF 393 renal): 40.7 µM | GI50 (SN12C renal): 17.1 µM | TGI (SN12C renal): 83.8 µM | GI50 (KM12 colon): 6.95 µM | TGI (KM12 colon): > 100 µM | GI50 (CAKI-1 renal): 1.99 µM | GI50 (SK-OV-3 ovarian): 30 µM | TGI (SK-OV-3 ovarian): > 89.9 µM | GI50 (SNB-19 CNS): 26.4 µM | TGI (SNB-19 CNS): > 90.1 µM | GI50 (MOLT-4 leukemia): 11 µM | TGI (MOLT-4 leukemia): 23.2 µM | GI50 (COLO 205 colon): 25.7 µM | TGI (COLO 205 colon): > 100 µM | GI50 (MCF7 breast): 3.21 µM | TGI (MCF7 breast): > 100 µM | GI50 (DU-145 prostate): 14.6 µM | TGI (DU-145 prostate): 59.6 µM | GI50 (A549 NSCLC): 20.2 µM | TGI (A549 NSCLC): > 100 µM | GI50 (OVCAR-3 ovarian): 13.5 µM | TGI (OVCAR-3 ovarian): 31.2 µM | GI50 (T-47D breast): 11.9 µM | TGI (T-47D breast): 43.9 µM | GI50 (HCT-15 colon): 5.68 µM | TGI (HCT-15 colon): > 62.9 µM | GI50 (MDA-MB-435 melanoma): 16.1 µM | TGI (MDA-MB-435 melanoma): 41.4 µM | GI50 (SNB-75 CNS): 21.5 µM | TGI (SNB-75 CNS): > 87.7 µM | GI50 (UACC-62 melanoma): 8.91 µM | TGI (UACC-62 melanoma): 22.5 µM | GI50 (NCI-H23 lung): 14.9 µM | TGI (NCI-H23 lung): 37.7 µM | GI50 (TK-10 renal): 27.5 µM | TGI (TK-10 renal): > 100 µM | GI50 (SF-295 CNS): 14.3 µM | TGI (SF-295 CNS): > 81.6 µM | GI50 (SK-MEL-28 melanoma): 27.8 µM | TGI (SK-MEL-28 melanoma): > 74.8 µM | GI50 (BT-549 breast): 0.827 µM | TGI (BT-549 breast): 30.1 µM | GI50 (HOP-92 NSCLC): 21.2 µM | TGI (HOP-92 NSCLC): 59.1 µM | GI50 (M14 melanoma): 24.7 µM | TGI (M14 melanoma): > 79.5 µM | GI50 (OVCAR-4 ovarian): 8.64 µM | TGI (OVCAR-4 ovarian): 59.1 µM | GI50 (CCRF-CEM leukemia): 11.7 µM | TGI (CCRF-CEM leukemia): 24.3 µM | GI50 (IGROV1 ovarian): 25.6 µM | TGI (IGROV1 ovarian): > 100 µM | GI50 (HT29 colon): 28.1 µM | TGI (HT29 colon): > 100 µM | GI50 (UACC-257 melanoma): 38.4 µM | TGI (UACC-257 melanoma): > 74.7 µM | GI50 (A498 renal): 17.6 µM | TGI (A498 renal): > 56.1 µM | GI50 (U251 glioblastoma): 10.2 µM | TGI (U251 glioblastoma): 38.1 µM | GI50 (NCI-H522 lung): 12.6 µM | TGI (NCI-H522 lung): 29.6 µM | GI50 (HCT-116 colon): 4.95 µM | TGI (HCT-116 colon): 27.6 µM | GI50 (NCI-H322M lung): 20 µM | TGI (NCI-H322M lung): 75.5 µM | GI50 (ACHN renal): 18.7 µM | TGI (ACHN renal): > 90.1 µM | GI50 (SF-539 CNS): 13.7 µM | TGI (SF-539 CNS): > 56.4 µM | GI50 (MALME-3M melanoma): 23 µM | TGI (MALME-3M melanoma): 65.1 µM | GI50 (OVCAR-5 ovarian): 23.4 µM | TGI (OVCAR-5 ovarian): > 100 µM | GI50 (HCC-2998 colon): 23.7 µM | TGI (HCC-2998 colon): > 79.9 µM | GI50 (HS 578T breast): 10.5 µM | TGI (HS 578T breast): 39.1 µM | GI50 (HOP-62 NSCLC): 8.82 µM | TGI (HOP-62 NSCLC): 26.4 µM | GI50 (PC-3 prostate): 20.4 µM | TGI (PC-3 prostate): 49 µM | GI50 ([…]-0 renal): 12.8 µM | TGI (786-0 renal): 31.8 µM | GI50 (SW-620 colon): 19.4 µM | TGI (SW-620 colon): > 67.9 µM | GI50 (NCI-H226 lung): 19 µM | TGI (NCI-H226 lung): 97.2 µM | GI50 (EKVX NSCLC): 33.3 µM | TGI (EKVX NSCLC): 98.2 µM | GI50 (MDA-MB-468 breast): 15.8 µM | TGI (MDA-MB-468 breast): 38.4 µM | TGI (RPMI-8226 leukemia): 9.91 µM | GI50 (SK-MEL-5 melanoma): 15.5 µM | TGI (SK-MEL-5 melanoma): 37 µM | GI50 (SF-268 CNS): 18.4 µM | TGI (SF-268 CNS): > 88.4 µM | GI50 (HL-60(TB) leukemia): 0.0689 µM | TGI (HL-60(TB) leukemia): 16.3 µM | GI50 (SK-MEL-2 melanoma): 21.9 µM | TGI (SK-MEL-2 melanoma): 41.8 µM | GI50 (NCI/ADR-RES ovarian): 14.2 µM | TGI (NCI/ADR-RES ovarian): 36.2 µM | GI50 (UO-31 renal): 1.06 µM | TGI (UO-31 renal): 2.43 µM | GI50 (NCI-H460 NSCLC): 1.21 µM | TGI (NCI-H460 NSCLC): 2.97 µM
